Patent publication US6034246A, “2-arylbenzazole compounds” (Cancer Research Campaign Technology Limited, priority 1995, dated 2000)

Legend:
OVCAR-5 = experiment: in vitro activity against human ovarian cell line OVCAR-5 (Table 2); assay type: cell-based
Excerpt: (§1) Tables 1 to 4 at the end of the present description show in vitro test results obtained in various sets of experiments for the cytotoxic activity of several of the benzazole compounds concerned, including also for reference results for the compound CJM 126 and comparative results for compound DF129, when tested against a range of tumor cell lines which includes ovarian, lung and certain colon and renal cancer cells from the National Cancer Institute (USA) collection. As usual the results are expressed in terms of IS50 values (concentration or dosage required to reduce cell growth or proliferation by 50%) calculated from dose-effect curves plotted for cultures of the cells in question.
(§2) In carrying out the in vitro studies, the cytotoxicity assays may be carried out by a method corresponding substantially to the following example: […]
(§3) On day 7 the test was terminated by the addition of 100 μl saline containing 0.002% w/v propidium iodide (Sigma), 0.3% drawing ink (Staedtler "Marsmatic 745"--Trade Mark) and 0.5% Triton X-100. The plates were kept at 4° C. overnight before reading on an inverted microscope equipped with an automated scanning stage. Fluorescence intensity was measured in arbitrary units by a photomultiplier. […]

IGR-OV1 = experiment: in vitro activity against human ovarian cell line IGR-OV1 (Table 2); assay type: cell-based; settings: IGROV-1
Excerpt: as §1, §2, §3

MOR/P = experiment: in vitro inhibition of growth of human lung cancer cell line MOR/P (Table 1); assay type: cell-based; settings: MOR/P (parental line)
Excerpt: as §1
(§4) In carrying out the in vitro studies, the cytotoxicity assays may be carried out by a method corresponding substantially to the following example:
(§5) Cells were maintained in a continuous logarithmic culture in Dublecco's medium supplemented with 10% fetal calf serum and penicillin (100 IU/ml) and streptomycin ([…]). The cells were mildly trypsinized for passage and for use in assays. On day zero, 100 μl of trypsinized tumor cells (1×10^4 /ml) were plated in the wells of 96-well flat-bottom microtiter plates. The plates were incubated for 2 days at 37° C. and 5% CO2 in air to allow the cells to adhere and resume exponential growth prior to the addition of drugs.
(§6) On day two 50 μl of the highest drug concentration was added to the wells of column 12 and from there serially diluted 3-fold to column 1 by serial transfer of 50 μl using an 8-channel micropipette. The final volume of column 1 was adjusted to 100 μl. No additions were made to the wells of rows A and B, which served as controls. The plates were further incubated for 5 days at 37° C. and 5% CO2 in air. Each compound was tested in duplicate.
(§7) On day 7 the test was terminated by the addition of 100 μl saline containing 0.002% w/v propidium iodide (Sigma), 0.3% drawing ink (Staedtler "Marsmatic 745"--Trade Mark) and 0.5% Triton X-100. The plates were kept at 4° C. overnight before reading on an inverted microscope equipped with an automated scanning stage. Fluorescence intensity was measured in arbitrary units by a photomultiplier. An HP-87 computer controlled the movement of the stage and also collected and processed the data from the multiplier.
(§8) For each compound tested a dose-response curve was obtained and the IC50 value (the drug concentration at 50% inhibition of cell growth) was calculated.

L88 = experiment: in vitro inhibition of growth of human lung cancer cell line L88 (Table 1); assay type: cell-based
Excerpt: as §1, §4, §5
as §6, with “The plates were further incubated for 5 days at 37° C. and 5% CO2 in air. Each compound was tested in duplicate.” left out
as §3

H69/P = experiment: in vitro inhibition of growth of human lung cancer cell line H69/P (Table 1); assay type: cell-based
Excerpt: as §1, §4, §5, §6, §7, §8

MOR/CPR = experiment: in vitro inhibition of growth of human lung cancer cell line MOR/CPR (Table 1); assay type: cell-based; settings: for IC50: Homo sapiens, MOR/CPR (cisplatin resistant line); for activity against MOR/CPR relative to MOR/P and MOR/R: words, Table 1
Excerpt: as §1, §4, §5, §6, §7, §8

Renal ACHN = experiment: in vitro inhibitory activity against human renal cell line ACHN (Table 3); assay type: cell-based
Excerpt: as §1, §2, §3

MOR/R = experiment: in vitro inhibition of growth of human lung cancer cell line MOR/R (Table 1); assay type: cell-based; settings: MOR/R (multidrug resistant line)
Excerpt: as §1, §4, §5, §6, §7, §8

OVCAR-8 = experiment: in vitro activity against human ovarian cell line OVCAR-8 (Table 2); assay type: cell-based
Excerpt: as §1, §2, §3

[1] = test system: human breast cancer cell lines; experiment: in vitro inhibition of human breast cancer cell lines; assay type: cell-based; settings: words, Table 4
Excerpt: as §1, §4, §5, §6, §7, §8

MCF-7wt = experiment: in vitro inhibitory activity against human breast tumour cell line MCF-7wt (Table 4); assay type: cell-based; settings: initial seeding density 2.5 × 10^2 cells/well
Excerpt: as §1, §4, §5, §6, §7, §8
*Initial seeding density 2.5 × 10^2 cells/well

NCI HOP-92 = experiment: in vitro inhibition of growth of human lung cancer cell line NCI HOP-92 (Table 1); assay type: cell-based
Excerpt: as §1, §2, §3

SDBR3 = experiment: in vitro inhibitory activity against human breast tumour cell line SDBR3 (Table 4); assay type: cell-based; settings: initial seeding density 2.5 × 10^2 cells/well
Excerpt: as §1, §2, §3

[2] = test system: xenotransplanted breast carcinomas; experiment: in vivo activity in panel of xenotransplanted breast carcinomas; set-up: species or system human (xenotransplanted in nude mice); settings: words; DF203 panel of four, DF129 two carcinomas
Method: (§9) In one typical set of experiments, four human breast carcinomas xenotransplanted into female Ncr: nu/nu (Taconic, Germantown, U.S.A.) or male Bom: NMRI-nu/nu mice (Bomholtgaard, Ry, Denmark) were used for the evaluation of antitumor activity. Mice weighing 20-25 g at the start of experiments were held under sterile conditions at 24-26° C., 50% relative humidity and 12 hours light-dark rhythm in laminar flow shelves. The animals received autoclaved food and bedding; the drinking water was filtered and acidified (pH4.0).
The following breast carcinoma cell lines were used: BO; MCF-7 (NCI, U.S.A.); MT-1 and MT-3. The tumors BO and MCF-7 are ER^+ models: the carcinomas MT-1 and MT-3 are ER^- ones. Tumors were transplanted subcutaneously (s.c.) as pieces (2×2 mm) into the left flank of 5-8 nude mice/experimental group. Drug treatment was initiated when the tumors reached a diameter of 4-5 mm. […] Tumor size was measured twice weekly with a caliper. Median tumor volume/group was related to the first treatment day and expressed as Relative Tumor Volume (RTV). For the estimation of toxicity, body weight was determined twice weekly and the mean percentage body weight change (BCC) was calculated. In one experiment blood was obtained from the retroorbital venous plexus of mice and blood cells were determined with a Coulter counter (Model T41).

Colon HCC-2998 = experiment: in vitro inhibitory activity against human colon cell line HCC-2998 (Table 3); assay type: cell-based
Excerpt: as §1, §2, §3

A2780-cisR = experiment: in vitro activity against human ovarian cell line A2780-cisR (Table 2); assay type: cell-based; settings: for IC50: Homo sapiens, A2780cisR, A2780-cisR (platinum-resistant); for activity against A2780-cisR compared to the parental line A2780: words, Table 2
Excerpt: As usual the results are expressed in terms of IS50 values (concentration or dosage required to reduce cell growth or proliferation by 50%) calculated from dose-effect curves plotted for cultures of the cells in question.
as §4, §5, §6
The plates were kept at 4° C. overnight before reading on an inverted microscope equipped with an automated scanning stage. Fluorescence intensity was measured in arbitrary units by a photomultiplier. An HP-87 computer controlled the movement of the stage and also collected and processed the data from the multiplier.

L23/R = experiment: in vitro inhibition of growth of human lung cancer cell line L23/R (Table 1); assay type: cell-based
Excerpt: as §1, §4, §5, §6, §7, §8

MCF-7 = experiment: in vivo antitumor test, human breast carcinoma MCF-7 xenotransplanted in nude mice; settings: for evaluation / RTV, relative tumor volume (T/C %): qd 12, 19, 26; for RTV, relative tumor volume (T/C %): marked * significant versus control
Method: as §9
The following breast carcinoma cell lines were used: BO; MCF-7 (NCI, U.S.A.); MT-1 and MT-3. The tumors BO and MCF-7 are ER^+ models: the carcinomas MT-1 and MT-3 are ER^- ones. Tumors were transplanted subcutaneously (s.c.) as pieces (2×2 mm) into the left flank of 5-8 nude mice/experimental group. Drug treatment was initiated when the tumors reached a diameter of 4-5 mm. Compounds were solubized with Tween 80 (maximum 10% of final volume) and suspended in saline. Suspensions were preparted freshly for each drug administration and injected in a volume of 0.2 mL/20 g body weight employing a once-weekly schedule (x3). Tumor size was measured twice weekly with a caliper. Median tumor volume/group was related to the first treatment day and expressed as Relative Tumor Volume (RTV). For the estimation of toxicity, body weight was determined twice weekly and the mean percentage body weight change (BCC) was calculated. In one experiment blood was obtained from the retroorbital venous plexus of mice and blood cells were determined with a Coulter counter (Model T41).
Some of the in vivo test results are shown in Tables 5 and 6 at the end of the present description, and in FIG. 1 of the accompanying drawing which illustrates the results for measurements of in vivo activity of 2-(4'-amino-3'-methylphenyl) benzothiazole (DF203) against MCF7 in nude mice administered on days 12, 19 and 26.

Prostatic DU 145 = experiment: in vitro inhibitory activity against human prostatic cell line DU 145 (Table 3); assay type: cell-based
Excerpt: as §1, §2, §3

[3] = MCF-7, optimum dose 200 mg/Kg/inj i.p.
[4] = MCF-7, optimum dose 12.5 mg/Kg/inj i.p.

SMILES	IC50 (IGR-OV1) [µM]	IC50 (MOR/P) [µM]	IC50 (L88) [µM]	IC50 (H69/P) [µM]	IC50 (MOR/CPR) [µM]	activity against MOR/CPR relative to MOR/P and MOR/R (MOR/CPR)	IC50 (Renal ACHN) [µM]	IC50 (MOR/R) [µM]	IC50 (OVCAR-8) [µM]	potency against breast cancer cells relative to CJM 126 [1]	IC50 (MCF-7wt) [µM]	in vivo activity in xenotransplanted breast carcinomas [2]	IC50 (Colon HCC-2998) [µM]	IC50 (A2780-cisR) [µM]	activity against A2780-cisR compared to the parental line A2780 (A2780-cisR)	IC50 (L23/R) [µM]	IC50 (Prostatic DU 145) [µM]	also measured
Nc1ccc(-c2nc3ccccc3s2)cc1I [DF129, 2-(4'-amino-3'-iodophenyl)benzothiazole]	< 0.1	0.3	0.05	> 10	0.025	more active against the MOR/CPR line than against the two other lines	> 100	0.1	> 100	more potent than even the compound CJM 126	< 0.001	only borderline activity in one of the models	< 1	41	increased activity	> 10	52	IC50 (OVCAR-5): 0.3 µM; IC50 (NCI HOP-92): < 0.01 µM; IC50 (SDBR3): < 0.001 µM; evaluation (MCF-7; [3]): (+) (T/C % ≥ 51%); RTV, relative tumor volume (T/C %) (MCF-7; [3]): 68%
Cc1cc(-c2nc3ccccc3s2)ccc1N [DF203, 2-(4'-amino-3'-methylphenyl)benzothiazole]	< 0.1	0.1	6	> 10	0.04	more active against the MOR/CPR line than against the two other lines	~100	0.07	> 100	more potent than even the compound CJM 126	< 0.001	consistent tumor growth inhibition in all four tumors	< 1	18	increased activity	> 10	> 100	evaluation (MCF-7; [4]): ++ (T/C = 21-35%); RTV, relative tumor volume (T/C %) (MCF-7; [4]): 31%; tumor status of surviving animal (MCF-7; top dose 25 mg/Kg): tumor free
